Assay [1] deals with human telomerease (HL60 cell extract). The experiment in a line: Antitelomerease activity: extension of oligonucleotide TS followed by PCR amplification, with HL60 extract. The assay is classed as biochemical. The note with it: read-out: TRAP IC50. In outline:
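HL60 CHAPS-lysate extract extends TS primer (15 min, 30 °C) with compound at 10, 1, 0.1 and 0.01 µM, followed by 30-cycle PCR with TS and CXext. Products resolved on 12% acrylamide and quantified; % inhibition versus enzyme control and blank, IC50 read from semilog plot.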

For assay [2], the system named is G-quadruplex of oligonucleotide GGGTTAGGGTTAGGGTTAGGG (3.5 repeats of the human telomereic motif). The experiment in a line: G-quadruplex stabilizing activity, fluorescence Tm (FAM+DABCYL oligonucleotide). The format is binding. The essentials:
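FAM/DABCYL-labelled telomeric oligonucleotide (0.2 μM strand) in 10 mM sodium cacodylate pH 7.6 with 0.1 M LiCl (or NaCl) was annealed, then incubated ≥1 h at 20 °C with compound at 1 μM final. Samples were heated 20→80 °C, with excitation at 470 nm and emission at 515/588 nm. Tm is the 515 nm emission midpoint.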

With `COc1ccc(COc2nc(Nc3ccc4nc(C)cc(N)c4c3)nc(Nc3ccc4nc(C)cc(N)c4c3)n2)cc1` [Example 113], the IC50 (in general, the concentration needed to halve the response being measured) in assay [1] was 530 nM. For the same compound, the “G4 delta Tm” value in assay [2] stood at 6 °C.
For `Cc1cc(N)c2cc(Nc3nc(Nc4ccc5nc(C)cc(N)c5c4)nc(OCc4ccccn4)n3)ccc2n1` [Example 114], in that order: 1260 nM and 13.5 °C.
The matching figures for `COc1cccc(Sc2nc(Nc3ccc4nc(C)cc(N)c4c3)nc(Nc3ccc4nc(C)cc(N)c4c3)n2)c1` [Example 122]: 370 nM and 13.5 °C.
On to `COC(=O)CSc1nc(Nc2ccc3nc(C)cc(N)c3c2)nc(Nc2ccc3nc(C)cc(N)c3c2)n1` [Example 125], for which, in assay [1], the IC50 is 360 nM. Besides, the “G4 delta Tm” value in assay [2] was 14.5 °C.
The matching figures for `CCN(CC)CCSc1nc(Nc2ccc3nc(C)cc(N)c3c2)nc(Nc2ccc3nc(C)cc(N)c3c2)n1` [Example 130]: 300 nM and 9 °C.
For the compound `CCN(CCSc1nc(Nc2ccc3nc(C)cc(N)c3c2)nc(Nc2ccc3nc(C)cc(N)c3c2)n1)Cc1ccccc1` [Example 131], in assay [1], the IC50 is 910 nM. Further, in assay [2], the “G4 delta Tm” value was 4.5 °C.
The matching figures for `Cc1cc(N)c2cc(Nc3nc(Nc4ccc5nc(C)cc(N)c5c4)nc(SCCN(C)C)n3)ccc2n1` [Example 132]: 400 nM and 12.5 °C.
For `Cc1cc(N(C)C)c2cc(Nc3nc(Nc4ccc5nc(C)cc(N(C)C)c5c4)nc(Sc4ccc5ccccc5n4)n3)ccc2n1` [Example 133, 2,4-bis(4-dimethylamino-2-methylquinolin-6-yl)amino-6-(quinolin-2-yl)thio-[1,3,5]triazine], in that order: 180 nM and 25 °C.
For `Cc1cc(N)c2cc(Nc3nc(Nc4ccc5nc(C)cc(N)c5c4)nc(N4CCC(O)C4)n3)ccc2n1` (centres unmarked) [Example 153], in that order: 410 nM and 10 °C.
For the compound `Cc1cc(N)c2cc(Nc3nc(Nc4ccc5nc(C)cc(N)c5c4)nc(N4CCN(CCO)CC4)n3)ccc2n1` [Example 154], in assay [1], the IC50 was 200 nM. Besides, the “G4 delta Tm” value in assay [2] worked out at 19 °C.
The matching figures for `Cc1cc(N)c2cc(Nc3nc(Nc4ccc5nc(C)cc(N)c5c4)nc(N4CCC(O)CC4)n3)ccc2n1` [Example 155]: 390 nM and 14 °C.
For `COC(C)CNc1nc(Nc2ccc3nc(C)cc(N)c3c2)nc(Nc2ccc3nc(C)cc(N)c3c2)n1` (centres unmarked) [Example 156], the 50% inhibitory concentration (IC50) in assay [1] turned out to be 1200 nM. In addition, the “G4 delta Tm” value in assay [2] amounted to 14.5 °C.
The matching figures for `Cc1cc(N)c2cc(Nc3nc(NCCO)nc(Nc4ccc5nc(C)cc(N)c5c4)n3)ccc2n1` [Example 158]: 850 nM and 8 °C.
For `COCC1CCCN1c1nc(Nc2ccc3nc(C)cc(N)c3c2)nc(Nc2ccc3nc(C)cc(N)c3c2)n1` (centres unmarked) [Example 159], in that order: 430 nM and 10.5 °C.
The matching figures for `Cc1cc(N)c2cc(Nc3nc(Nc4ccc5nc(C)cc(N)c5c4)nc(N4CCCC(O)C4)n3)ccc2n1` (centres unmarked) [Example 160]: 360 nM and 10.5 °C.
Consider `Cc1cc(N(C)C)c2cc(Nc3nc(Nc4ccc5nc(C)cc(N(C)C)c5c4)nc(N(CCO)CCO)n3)ccc2n1` [Example 161], for which the IC50 in assay [1] amounted to 1900 nM. In assay [2], the “G4 delta Tm” value came to 12 °C.
Take `Cc1cc(N(C)C)c2cc(Nc3nc(Nc4ccc5nc(C)cc(N(C)C)c5c4)nc(N4CCC(O)C4)n3)ccc2n1` (centres unmarked) [Example 162]: the IC50 in assay [1] worked out at 1700 nM. Also, the “G4 delta Tm” value in assay [2] came out at 17 °C.
The matching figures for `Cc1cc(N(C)C)c2cc(Nc3nc(Nc4ccc5nc(C)cc(N(C)C)c5c4)nc(N4CCN(CCO)CC4)n3)ccc2n1` [Example 163]: 1200 nM and 13 °C.
For `Cc1cc(N(C)C)c2cc(Nc3nc(Nc4ccc5nc(C)cc(N(C)C)c5c4)nc(N4CCC(O)CC4)n3)ccc2n1` [Example 164], in that order: 1600 nM and 12.5 °C.
With `COC(C)CNc1nc(Nc2ccc3nc(C)cc(N(C)C)c3c2)nc(Nc2ccc3nc(C)cc(N(C)C)c3c2)n1` (centres unmarked) [Example 165], the IC50 in assay [1] worked out at 1400 nM. Besides, the “G4 delta Tm” value in assay [2] worked out at 6.5 °C.
For `Cc1cc(N(C)C)c2cc(Nc3nc(NCCO)nc(Nc4ccc5nc(C)cc(N(C)C)c5c4)n3)ccc2n1` [Example 167], in that order: 1100 nM and 6 °C.
For `COCC1CCCN1c1nc(Nc2ccc3nc(C)cc(N(C)C)c3c2)nc(Nc2ccc3nc(C)cc(N(C)C)c3c2)n1` (centres unmarked) [Example 168], in that order: 1100 nM and 16.5 °C.
The matching figures for `Cc1cc(N(C)C)c2cc(Nc3nc(Nc4ccc5nc(C)cc(N(C)C)c5c4)nc(N4CCCC(O)C4)n3)ccc2n1` (centres unmarked) [Example 169]: 700 nM and 16.5 °C.
Take `Cc1cc(N(C)C)c2cc(Nc3nc(Nc4ccc5nc(C)cc(N(C)C)c5c4)nc(NC(CO)CO)n3)ccc2n1` [Example 170]: the half-maximal inhibitory concentration (IC50) in assay [1] was 1300 nM. In addition, the “G4 delta Tm” value in assay [2] was 3 °C.
The matching figures for `Cc1cc(N(C)C)c2cc(Nc3nc(Nc4ccc5nc(C)cc(N(C)C)c5c4)nc(NC(CO)C(=O)O)n3)ccc2n1` (centres unmarked) [Example 171]: 490 nM and 13 °C.
As for `Cc1cc(N)c2cc(Nc3nc(Nc4ccc5nc(C)cc(N)c5c4)nc(NC(CO)CO)n3)ccc2n1` [Example 173], the IC50 in assay [1] was 620 nM. Further, in assay [2], the “G4 delta Tm” value was found to be 11.5 °C.
The matching figures for `Cc1cc(N(C)C)c2cc(Nc3nc(Nc4ccc5nc(C)cc(N(C)C)c5c4)nc(NC(C)CO)n3)ccc2n1` (centres unmarked) [Example 175]: 3000 nM and 3 °C.
For `Cc1cc(N(C)C)c2cc(Nc3nc(NCC(O)CO)nc(Nc4ccc5nc(C)cc(N(C)C)c5c4)n3)ccc2n1` (centres unmarked) [Example 176], in that order: 3000 nM and 6 °C.

The values are drawn from US6887873B2, “Triazine derivatives and their application as antitelomerase agents” (Aventis Pharma S.A., priority 2001, dated 2005).
